Laboratory results published in patent US11439609B2, “Nitric oxide releasing PLGA microspheres for biomedical applications” (THE REGENTS OF THE UNIVERSITY OF MICHIGAN, priority 2015, dated 2022).

Experiment: Morphology and size distribution by SEM
Type: physicochemical
Settings: cryomilled at −196° C.
Description: For morphology and size distribution analysis, microspheres were coated with 40 nm of gold using a sputter coater (Desk II, Denton Vacuum Inc., Hill, N.J., USA) for 120 seconds. Secondary electron micrographs were taken by a Hitachi S-3200N Variable Pressure SEM (Hitachi High-Technologies Corp., Tokyo, Japan). The applied accelerating voltage was 15 kV. For size distribution measurements, the diameter of at least 500 particles was measured and analyzed with ImageJ software (see, e.g., C. A. Schneider, W. S. Rasband, K. W. Eliceiri, NIH Image to ImageJ: 25 years of image analysis, Nature Methods. 9 (2012) 671-675). For cross-sectional images, the microspheres were cut using a razor-blade on a glass slide prior to coating with gold for the SEM analysis.

SMILES: CC(=O)N[C@@H](C(=O)O)C(C)(C)SN=O [SNAP, S-nitroso-N-acetyl-D-penicillamine]
- particle dimensions after micronization: < 25 μm
